Converted amounts (≈) assume the structure as drawn.

One experiment has as its system fungi. The conditions noted are these: prior art, Japanese patent publications; cited from earlier work.
Another experiment deals with Fusarium oxysporum. Put plainly: Test B-6 Control Test to Damping-off of Cucumber. The experiment is classed as in vivo. The following applies: F*, 500 ppm, soil drench, 2 weeks. How it is done:
(§1) Test B-6 Control Test to Damping-off of Cucumber
(§2) Twenty cucumber seeds were sown into sterilized soil (150 ml) in a pot of 9 cm in diameter. The fungi, Phythium aphanidermatum, Fusarium oxysporum and Rhizoctonia solani were cultured on a wheat bran medium for 5 days and an additional 2 days thereafter were mixed with sterilized soil. The surface of the sown spots was covered with the above culture medium. A test solution (30 ml) at a prescribed concentration was poured into each pot. The pots were kept in a greenhouse (28° C.) for 1 week in the case of Pythium and Rhizoctonia and for 2 weeks in the case of Fusarium.
(§3) The disease degree was observed and percent disease degree was calculated by the following formula: […]
(§4) (1) No germination . . . x 4
(§5) (2) Germed but withered . . . x 3
(§6) (3) Disordered in 1/3 or more . . . x 2
(§7) (4) Disordered in less than 1/3 . . . x 1
(§8) (5) Not damaged . . . x 0 [formula]
(§9) The percent disease control was calculated in the same manner as in Test B-1.

In another experiment the test system is Rhizoctonia solani. Kind of experiment: Test B-6 Control Test to Damping-off of Cucumber. The experiment is classed as in vivo. The following applies: R*, 500 ppm, soil drench, 1 week. How it is done:
as §1, §2, §3, §4, §5, §6, §7, §8, §9

A further experiment concerns Pythium aphanidermatum. Put plainly: Test B-6 Control Test to Damping-off of Cucumber. The conditions noted are these: P*, 500 ppm, soil drench, 1 week. The class given is in vivo. How it is done:
as §1, §2, §3, §4, §5, §6, §7, §8, §9

Another experiment has as its system Sclerotinia sclerotiorum. Kind of experiment: Test B-2 Control Test to Sclerotinia Rot of Cucumber. The experiment is classed as in vivo. The conditions noted are these: 48 h, 2 days, read-out: Percent Disease Control. How it is done:
Test B-2 Control Test to Sclerotinia Rot of Cucumber
Cucumber seedlings were sprayed with 2.5 ml of a test solution in the same manner as in Test B-1. Afterthe spraying, the seedlings were kept at 25°-26° C. for a day and three disks of 4 mm in diameter containing mycelia of Sclerotinia sclerotiorum were put on a primary leaf and then 10 μl of PD broth were dropped on the disks. The treated seedlings were kept ina greenhouse (20° C.) for 2 days and then the diameters of the disease spots were measured by a pair of slide callipers. [formula]

For a further experiment, the system named is Pyricularia oryzae. The class given is in vivo. The following applies: 500 ppm; rice plant blast, 24 hours + 7 days.
The next experiment deals with Aspergillus fumigatus. Put plainly: Test A-1 Anti-fungal Activity (MIC), microwell dilution. The experiment is classed as cell-based. The following applies: in vitro, 1×10^5 cells/ml. How it is done: (§10) Test A-1 Anti-fungal Activity (MIC)
(§11) The concentration of the test cells was 1×10^5 cells/ml and the activity was measured by a microwell dilution method. The structure of the test compounds is referred to in the Examples.

A further experiment has as its system Candida albicans M-9. The experiment is described as above. The class given is cell-based. The following applies: M9, C. albicans M-9, in vitro, 1×10^5 cells/ml. The protocol: as §10, §11
Experiment [1] has as its system Trichophyton asteroides. Described as above. The experiment is classed as cell-based. The conditions noted are these: T. asteroides, in vitro, 1×10^5 cells/ml. How it is done:
as §10
The following results (Table 1) were obtained in an anti-fungal activity test in vitro against Aspergillus fumigatus, Candida albicans M-9 and Trichophyton asteroides. The concentration of the test cells was 1×10^5 cells/ml and the activity was measured by a microwell dilution method. The structure of the test compounds is referred to in the Examples.

A further experiment has as its system Mycoplasma gallisepticum. Kind of experiment: minimum inhibition concentration. The following applies: Mycoplasmoides gallisepticum, one range for the listed compounds. The class given is cell-based.
For experiment [2], the system named is Colletotrichum lagenarium. Kind of experiment: Test B-4 Control Test to Anthracnose of Cucumber. The conditions noted are these: 500 ppm, 3 + 3 days. The class given is in vivo. How it is done: Test B-4 Control Test to Anthracnose of Cucumber Each cucumber seedling was sprayed with 2.5 ml of a test solution in the same manner as in Test B-1. After the spraying, the seedlings were kept at 25°-26° C. for a day and were inoculated with five filter-paper disks of 6 mm in diameter saturated with a conidium suspension of Colletotrichum lagenarium at a concentration of 1×10^6 conidia/ml. The treated seedlings were kept in a greenhouse (25° C.) for 3 days and further kept at below 25° C. for 3 days. Standard of Evaluation The same as noted in Test B-3.

The subject of experiment [3] is Trichophyton asteroides. Kind of experiment: Test A-2 Anti-fungal Activity (MCC). The conditions noted are these: 168 h, read-out: MCC (Minimal Cidal Concentration).
Protocol: Some MCC (Minimal Cidal Concentration) values (Table 1) were obtained against Candida albicans and Trichophyton asteroides by the following method. After the MIC value was obtained by the microwell method, a loopful amount was picked up from the medium in which no growth of the fungus was observed, inoculated into a Subrouraud's glucose agar medium and incubated at 28° C. for 2 days in the case of C. albicans and for 7 days in the case of T. asteroides.
The test system of the next experiment is Candida albicans. Put plainly: Test A-2 Anti-fungal Activity (MCC). The conditions noted are these: 48 h, read-out: MCC (Minimal Cidal Concentration).

As for `Cc1cc(OCC#CI)no1` [3-(3-iodo-2-propynyl)oxy-5-methylisoxazole], the anti-fungal activity entry in the experiment on fungi was “anti-fungal and anti-septic agent for woods”.

For the compound `IC#CCOc1noc2ccccc12` [3-(3-iodo-2-propynyloxy)benzisoxazole], in the experiment with fungi, the anti-fungal activity entry was “has the same activity”.

For `Cc1noc(NCC#CI)c1C` [Comp. 19], the “Percent Disease Control” value in the experiment on Fusarium oxysporum came out at 78%; with Rhizoctonia solani, 100%; in the experiment on Pythium aphanidermatum, 100%; in the experiment with Pyricularia oryzae, 100%; in experiment [2] it was 100%. Besides, in the experiment on Sclerotinia sclerotiorum, the pest or weed control at 500 ppm was 100%. Also, the MIC in the experiment on Aspergillus fumigatus was 3.1 µg/mL (≈ 11.2 µM); against Candida albicans M-9, 0.8 µg/mL (≈ 2.9 µM); with Trichophyton asteroides [1] it was 0.8 µg/mL (≈ 2.9 µM); against Mycoplasma gallisepticum it was 6.25 to 12.5 µg/mL (≈ 22.6 to 45.3 µM).

With `Cc1noc(N(C)CC#CI)c1C` [Comp. 20], the “Percent Disease Control” value was 57% in the experiment with Fusarium oxysporum, 100% with Rhizoctonia solani, 100% in the experiment with Pythium aphanidermatum and 100% in the experiment on Pyricularia oryzae. The MFC in the experiment with Trichophyton asteroides [3] was 3.1 µg/mL (≈ 10.7 µM); with Candida albicans it was 50 µg/mL (≈ 172 µM). Further, the pest or weed control at 500 ppm in the experiment with Sclerotinia sclerotiorum was determined as 100%. Further, the MIC in the experiment on Aspergillus fumigatus was 0.8 µg/mL (≈ 2.76 µM); with Candida albicans M-9 it was 0.8 µg/mL (≈ 2.76 µM); in the experiment with Trichophyton asteroides [1], 0.8 µg/mL (≈ 2.76 µM); against Mycoplasma gallisepticum, 6.25 to 12.5 µg/mL (≈ 21.5 to 43.1 µM).
